Test results from patent US20220048919A1, “HETEROARYLDIHYDROPYRIMIDINE DERIVATIVES AND METHODS OF TREATING HEPATITIS B INFECTIONS” (Janssen Phrmaceutica NV, priority 2018, published 2022).

Columns and labels:
HBV = assay: Anti-HBV activity in HepG2.2.15 cells (HBV DNA in culture medium by qPCR); assay type: cell-based; conditions: Hepatitis B virus, 144 h, 6 days of compound treatment
Protocol: (§1) HepG2.2.15 (the HepG2.2.15 cell line can be produced by transfection of the HepG2 cell line as described in Sells, Chen, and Acs 1987 (Proc. Natl. Acad. Sci. USA 84:1005-1009), and the HepG2 cell line is available from ATCC® under number HB-8065™).
(§2) HepG2.2.15 cells were plated into 96-well plate in 2% FBS culture medium at the density of 40,000 cells/well and 5,000 cells/well for HBV inhibitory activity and cytotoxicity determination, respectively. After incubation at 37° C., 5% CO2 overnight, cells were treated with medium containing compounds for 6 days with medium and compounds refreshed after 3 days of treatment. Each compound was tested in a 1:3 serial dilutions at 8 different concentrations in triplicate. The highest concentration of the compounds was 10 uM or 1 uM for anti-HBV activity assay and 100 uM for cytotoxicity determination.
The change of HBV DNA level induced by the compounds was assessed by quantitative real-time polymerase chain reaction (qPCR). Briefly, the HBV DNA in the culture medium was extracted using QIAamp 96 DNA Blood Kit according to the manual and then quantified by real-time PCR assay using the primers and probe in the table 1 below.
(§3) EC50 and CC50 values are calculated by the […] PRISM software.

[1] = Cytotoxicity determination in HepG2.2.15 cells (CCK-8 cell viability); assay type: cell-based; conditions: human, 6 days of compound treatment, CCK-8 assay
Protocol: as §1, §2
Cell viability was determined by CCK-8 assay. After 6 days of compounds treatment, 20 μl CCK-8 reagents were added to each well of cytotoxicity assay plates. Cell plates were incubated at 37° C., 5% CO2 for 2.5 h. The absorbance at 450 nm wavelength and the absorbance at 630 nm wavelength as reference was measured.
as §3

SMILES | EC50 (HBV) [µM] | CC50 at 6 days [1] [µM]
CCOC(=O)C1=C(CN2CCN3C(=S)N(CC(C)(C)C(=O)O)CC3(C)C2)NC(c2nccs2)=N[C@H]1c1cccc(F)c1C (single isomer, unassigned) [Compound 6A, 3-((R*)-7-(((S)-5-(Ethoxycarbonyl)-6-(3-fluoro-2-methylphenyl)-2-(thiazol-2-yl)-3,6-dihydropyrimidin-4-yl)methyl)-8a-methyl-3-thioxohexahydroimidazo[1,5-a]pyrazin-2(3H)-yl)-2,2-dimethylpropanoic Acid] | 0.012 | 13
CCOC(=O)C1=C(CN2CCN3C(=O)N(CC(C)(C)C(=O)O)CC3(C)C2)NC(c2nccs2)=N[C@H]1c1cccc(F)c1C (single isomer, unassigned) [Compound 1B] | 0.009 | 24.3
COC(=O)C1=C(CN2CCN3C(=O)N(CC(C)(C)C(=O)O)C[C@]3(C)C2)NC(c2nccs2)=N[C@H]1c1ccc(F)cc1Br (relative stereo) [Compound 3A, 3-((S*)-7-(((R*)-6-(2-Bromo-4-fluorophenyl)-5-(methoxycarbonyl)-2-(thiazol-2-yl)-3,6-dihydropyrimidin-4-yl)methyl)-8a-methyl-3-oxohexahydroimidazo[1,5-a]pyrazin-2(3H)-yl)-2,2-dimethylpropanoic Acid] | 0.038 | 26.7
CCOC(=O)C1=C(CN2CCN3C(=O)N(CC(C)(C)C(=O)O)C[C@]3(C)C2)NC(c2nccs2)=N[C@H]1c1cccc(F)c1Cl (single isomer, unassigned) [Compound 2A, (S*)-3-(-7-(((R*)-6-(2-Chloro-3-fluorophenyl)-5-(ethoxycarbonyl)-2-(thiazol-2-yl)-3,6-dihydropyrimidin-4-yl)methyl)-8a-methyl-3-oxohexahydroimidazo[1,5-a]pyrazin-2(3H)-yl)-2,2-dimethylpropanoic Acid] | 0.016 | 19.4
CCOC(=O)C1=C(CN2CCN3C(=O)N([C@H]4CC[C@H](C(=O)O)CC4)C[C@]3(C)C2)NC(c2nccs2)=N[C@H]1c1cccc(F)c1C (relative stereo) [Compound 5A, (trans)-4-((S)-7-(((S*)-5-(Ethoxycarbonyl)-6-(3-fluoro-2-methylphenyl)-2-(thiazol-2-yl)-3,6-dihydropyrimidin-4-yl)methyl)-8a-methyl-3-oxohexahydroimidazo[1,5-a]pyrazin-2(3H)-yl)cyclohexanecarboxylic Acid] | 0.034 | 9.2
CCOC(=O)C1=C(CN2CCN3C(=O)N(CC(C)(C)C(=O)O)CC3(CC)C2)NC(c2nccs2)=N[C@H]1c1cccc(F)c1C (single isomer, unassigned) [Compound 4B, 3-((S*)-7-(((S)-5-(Ethoxycarbonyl)-6-(3-fluoro-2-methylphenyl)-2-(thiazol-2-yl)-3,6-dihydropyrimidin-4-yl)methyl)-8a-ethyl-3-oxohexahydroimidazo[1,5-a]pyrazin-2(3H)-yl)-2,2-dimethylpropanoic Acid] | 0.165 | 18.5
